Several values for one entry are separate records, joined by “and”; a condition that tells them apart may be missing. Equal entries are not always repeated.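 Where inhibition never reached the appropriate level, the endpoint shown equals the highest concentration tested. Otherwise, values were interpolated linearly from a five-concentration, 48-hour dose response in 96-well plates. GI50 = concentration required for 50% inhibition of growth.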 Activity calls are given as the source filed them. Rule as the data show it: active = GI50 up to about 1.1 µM and inactive = higher.
Assays:
Assay in all cases: NCI anticancer screen, dose series, 48 h
SNB-19 = test system: SNB-19
BT-549 = test system: BT-549
UO-31 = test system: UO-31
A498 = test system: A498
Hs-578T = test system: Hs-578T
HCT-15 = test system: HCT-15
T47D = test system: T47D
U-251 = test system: U-251
NCI-H522 = test system: NCI-H522
SR = test system: SR
PC-3 = test system: PC-3
RXF 393 = test system: RXF 393
EKVX = test system: EKVX
COLO 205 = test system: COLO 205
HOP-62 = test system: HOP-62
UACC-257 = test system: UACC-257
HOP-92 = test system: HOP-92
CCRF-CEM = test system: CCRF-CEM
786-0 = test system: 786-0
IGROV-1 = test system: IGROV-1

Structure (SMILES)	GI50 (SNB-19)	GI50 (BT-549)	GI50 (UO-31)	GI50 (A498)	GI50 (Hs-578T)	GI50 (HCT-15)	GI50 (T47D)	GI50 (U-251)	GI50 (NCI-H522)	GI50 (SR)	GI50 (PC-3)	GI50 (RXF 393)	GI50 (EKVX)	GI50 (COLO 205)	GI50 (HOP-62)	GI50 (UACC-257)	GI50 (HOP-92)	GI50 (CCRF-CEM)	GI50 (786-0)	GI50 (IGROV-1)
O=C1c2ccccc2/N=C(/c2cc3c(cc2Cl)Sc2nccn2S3(=O)=O)OS(=O)(=O)N1c1ccccc1	33.7 µM (inactive)	17.8 µM (inactive)	26 µM (inactive)	> 100 µM (inactive)	46.8 µM (inactive)	20.2 µM	> 100 µM (inactive)	29.2 µM (inactive)	5.31 µM (inactive)	10.8 µM (inactive)	44.4 µM (inactive)	20.8 µM (inactive)	30 µM (inactive)	19.9 µM (inactive)	21.7 µM (inactive)	64.7 µM (inactive)	80.5 µM (inactive)	4.65 µM (inactive)	38.4 µM (inactive)	–
CNC(=O)CNC(=O)C(Cc1ccc(NC(=O)CCCCC(C)=O)cc1)NC(=O)C(CCC(=O)OCc1ccccc1)NC(=O)OC(C)(C)C (configuration not stated)	> 100 µM (inactive)	> 100 µM (inactive)	> 100 µM (inactive)	48.3 µM (inactive)	> 100 µM (inactive)	> 100 µM	> 100 µM (inactive)	> 100 µM (inactive)	> 100 µM (inactive)	> 100 µM (inactive)	> 100 µM (inactive)	> 100 µM (inactive)	> 100 µM (inactive)	> 100 µM (inactive)	> 100 µM (inactive)	–	> 100 µM (inactive)	–	> 100 µM (inactive)	> 100 µM (inactive)
Fc1ccc(OCc2ccc3nc(-c4ccccc4)c(Cl)nc3c2)cc1	> 10 µM (inactive)	31.1 µM (inactive)	> 100 µM (inactive)	25.8 µM (inactive)	24.7 µM (inactive)	> 100 µM	31.6 µM (inactive)	16.8 µM (inactive)	6.19 µM (inactive)	16.1 µM (inactive)	37.2 µM (inactive)	–	39.6 µM (inactive)	37.1 µM (inactive)	16.3 µM (inactive)	> 100 µM (inactive)	25.7 µM (inactive)	25.7 µM (inactive)	16.9 µM (inactive)	25.1 µM (inactive)
O=c1[nH]nc(Cc2ccccc2)n1/N=C\c1ccccc1	–	> 100 µM (inactive)	> 100 µM (inactive)	> 100 µM (inactive)	76.2 µM (inactive)	> 100 µM	> 100 µM (inactive)	37.1 µM (inactive)	> 100 µM (inactive)	> 100 µM (inactive)	> 100 µM (inactive)	24.6 µM (inactive)	> 100 µM (inactive)	> 100 µM (inactive)	56.6 µM (inactive)	> 100 µM (inactive)	46.2 µM (inactive)	> 100 µM (inactive)	71.3 µM (inactive)	84.7 µM (inactive)
O=C1COC(c2ccccc2O)=NN1CCCN1CCCC1	> 100 µM (inactive)	> 100 µM (inactive)	> 100 µM (inactive)	> 100 µM (inactive)	> 100 µM (inactive)	> 100 µM	> 100 µM (inactive)	> 100 µM (inactive)	> 100 µM (inactive)	60.3 µM (inactive)	> 100 µM (inactive)	> 100 µM (inactive)	> 100 µM (inactive)	> 100 µM (inactive)	> 100 µM (inactive)	> 100 µM (inactive)	> 100 µM (inactive)	–	> 100 µM (inactive)	> 100 µM (inactive)
COc1cc2oc(-c3ccc(O)cc3)c(OC3OC(C)C(O)C(O)C3O)c(=O)c2c(O)c1OC (configuration not stated)	> 100 µM (inactive)	62.1 µM (inactive)	–	> 100 µM (inactive)	> 100 µM (inactive)	> 100 µM	> 100 µM (inactive)	89.5 µM (inactive)	37 µM (inactive)	27 µM (inactive)	> 100 µM (inactive)	> 100 µM (inactive)	> 100 µM (inactive)	> 100 µM (inactive)	> 100 µM (inactive)	> 100 µM (inactive)	> 100 µM (inactive)	35.6 µM (inactive)	51.2 µM (inactive)	> 100 µM (inactive)
C=C1C(=O)OC2/C=C(\CO)C(OC(C)=O)CC(O)/C(C)=C/C(OC(=O)C(C)CC)C12 (configuration not stated)	50.1 µM (inactive) and 75.7 µM (inactive)	19.4 µM (inactive)	87.1 µM (inactive) and 65.5 µM (inactive)	33 µM (inactive) and 28.2 µM (inactive)	36.9 µM (inactive)	38.6 µM and 30.2 µM	15.7 µM (inactive)	30.1 µM (inactive) and 26.9 µM (inactive)	4.57 µM (inactive) and 3.4 µM (inactive)	8 µM (inactive)	39.2 µM (inactive)	23.1 µM (inactive) and 24.4 µM (inactive)	25.5 µM (inactive) and 25.1 µM (inactive)	14 µM (inactive) and 11.8 µM (inactive)	> 100 µM (inactive)	15.2 µM (inactive) and 18 µM (inactive)	18.5 µM (inactive) and 21.7 µM (inactive)	–	14.8 µM (inactive) and 21.8 µM (inactive)	38.4 µM (inactive) and 40 µM (inactive)
Cn1cnc(N)c(N=O)c1=O	> 10 µM (inactive)	> 10 µM (inactive)	–	> 10 µM (inactive)	> 10 µM (inactive)	> 10 µM	> 10 µM (inactive)	> 10 µM (inactive)	> 10 µM (inactive)	> 10 µM (inactive)	> 10 µM (inactive)	> 10 µM (inactive)	> 10 µM (inactive)	> 10 µM (inactive)	> 10 µM (inactive)	> 10 µM (inactive)	–	> 10 µM (inactive)	> 10 µM (inactive)	> 10 µM (inactive)
c1cc2c3c(c1)[C@@H]1O[C@@H]1c1cccc(c1-3)[C@@H]1O[C@H]21	53.3 µM (inactive)	24 µM (inactive)	14.6 µM (inactive)	63.8 µM (inactive)	17.6 µM (inactive)	17.5 µM	20.5 µM (inactive)	16.9 µM (inactive)	14.8 µM (inactive)	49.5 µM (inactive)	22.9 µM (inactive)	2.93 µM (inactive)	16.6 µM (inactive)	18.1 µM (inactive)	27.7 µM (inactive)	18.2 µM (inactive)	20.8 µM (inactive)	–	20 µM (inactive)	–
CC(C)C/C=C/C1=NN(c2cccc(S(=O)(=O)O)c2)C2(C1)SCC(=O)N2c1nc2ccccc2s1 (configuration not stated)	50 µM (inactive)	83.2 µM (inactive)	50.1 µM (inactive)	27.7 µM (inactive)	56.8 µM (inactive)	91.6 µM	5.43 µM (inactive)	30.1 µM (inactive)	19.8 µM (inactive)	25.2 µM (inactive)	40 µM (inactive)	98.4 µM (inactive)	> 100 µM (inactive)	> 100 µM (inactive)	–	> 100 µM (inactive)	> 100 µM (inactive)	23.3 µM (inactive)	21.3 µM (inactive)	36.8 µM (inactive)
S=C(NCCc1ccccn1)c1nc[nH]c1C(=S)NCCc1ccccn1	60.3 µM (inactive)	42.3 µM (inactive)	29 µM (inactive)	> 100 µM (inactive)	20.7 µM (inactive)	34.6 µM	23.5 µM (inactive)	45.5 µM (inactive)	–	34 µM (inactive)	39.2 µM (inactive)	23 µM (inactive)	83.8 µM (inactive)	49.7 µM (inactive)	37.1 µM (inactive)	> 100 µM (inactive)	53.6 µM (inactive)	26.1 µM (inactive)	53.3 µM (inactive)	34.9 µM (inactive)
O=C1C(NS(=O)(=O)c2ccccc2)=C(n2ccnc2)C(=O)c2ccccc21	> 100 µM (inactive)	> 100 µM (inactive)	> 100 µM (inactive)	–	> 100 µM (inactive)	> 100 µM	> 100 µM (inactive)	> 100 µM (inactive)	> 100 µM (inactive)	> 100 µM (inactive)	> 100 µM (inactive)	> 100 µM (inactive)	> 100 µM (inactive)	> 100 µM (inactive)	> 100 µM (inactive)	> 100 µM (inactive)	> 100 µM (inactive)	> 100 µM (inactive)	> 100 µM (inactive)	> 100 µM (inactive)
CC(C)C(C=O)C(O)(C(F)(F)F)C(F)(F)F (configuration not stated)	> 100 µM (inactive)	> 100 µM (inactive)	> 100 µM (inactive)	> 100 µM (inactive)	59.3 µM (inactive)	> 100 µM	> 100 µM (inactive)	> 100 µM (inactive)	> 100 µM (inactive)	> 100 µM (inactive)	> 100 µM (inactive)	> 100 µM (inactive)	> 100 µM (inactive)	> 100 µM (inactive)	–	> 100 µM (inactive)	> 100 µM (inactive)	> 10 µM (inactive)	> 100 µM (inactive)	> 10 µM (inactive)
Cn1c2c(c3ccccc3c1=O)C(=O)c1ccccc1-2	44.2 µM (inactive)	50.9 µM (inactive)	21.9 µM (inactive)	74.1 µM (inactive)	> 100 µM (inactive)	9.79 µM	> 100 µM (inactive)	35.3 µM (inactive)	11.7 µM (inactive)	5.2 µM (inactive)	> 100 µM (inactive)	–	20.6 µM (inactive)	20 µM (inactive)	18.9 µM (inactive)	> 100 µM (inactive)	> 100 µM (inactive)	> 100 µM (inactive)	17.9 µM (inactive)	> 100 µM (inactive)
Cc1cc(C(=C2C=CC(=N)C=C2)c2ccc(N)cc2)ccc1N [FUCHSIN, BASIC]	0.615 µM (active)	0.82 µM (active)	17.6 µM (inactive)	32.5 µM (inactive)	0.494 µM (active)	12 µM	1.01 µM (active)	–	2.84 µM (inactive)	13.3 µM (inactive)	3.48 µM (inactive)	7.16 µM (inactive)	6.04 µM (inactive)	1.01 µM (active)	0.724 µM (active)	3.65 µM (inactive)	6.81 µM (inactive)	4.19 µM (inactive)	1.09 µM (active)	10.7 µM (inactive)
